Consider three molecules from US20240269197A1, “INSULIN-SENSITIZING AGENT AND BUTYRATE-PRODUCING BACTERIUM” (priority 2021, published 2024).

Where a name gives a salt, the structure may show the parent alone.

The experiment deals with subjects aged 18-65 years with a HOMA(-IR) score between 2.5 and 3.5 (insulin resistance). Description: Reduction in HOMA-IR after 28 days of (non-)butyrate-producing bacteria with or without (non-)insulin-sensitizing agents (Experimental Example 1). The class given is in vivo, human. Also on record: key: Non-measurable: the first rank describes the lowest effect; Very low: very low; Low: low; Low/medium: low/medium; Medium: medium; High: high; Very high: the last rank describes the highest effect. The following applies: supplement alone, bacterium placebo. From the text: The term ‘insulin resistance’ is well known by the skilled person. Within this disclosure, the term encompasses all conditions diagnosed as ‘insulin resistance’ by an (authorized) medical practitioner. The term ‘insulin resistance’ as used herein preferably refers to peripheral insulin resistance and/or hepatic insulin resistance. Insulin resistance may be diagnosed, for example, by the gold standard that is the “hyperinsulinemic euglycemic clamp” (DeFronzo R A, Tobin J D, Andres R, Am J Physiol. 1979 September; 237(3): E214-23). This method measures the amount of glucose necessary to compensate for an increased insulin level without causing hypoglycemia. The procedure may take two hours and typically involves the following steps: Through a peripheral vein, insulin is infused at 10-120 mU per m^2 per minute. In order to compensate for the insulin infusion, glucose 20% is infused to maintain blood sugar levels between 5 and 5.5 mmol/L. The rate of glucose infusion is determined by checking the blood sugar levels every five to ten minutes (Muniyappa R, Lee S, Chen H, Quon M J, January 2008, American Journal of Physiology. Endocrinology and Metabolism. 294 (1): E15-26). […] The homeostatic model assessment for insulin resistance (HOMA or HOMA-IR) is an alternative method used to determine and quantify insulin resistance in a fasting steady-state condition, and correlates reasonably with the golden standard (See e.g., Matthews D R, Hosker J P, Rudenski A S, Naylor B A, Treacher D F, Turner R C (1985). Diabetologia. 28 (7): 412-9. Doi:10.1007/BF00280883. PMID 3899825; and/or A. S. Rudenski; D. R. Matthews; J. C. Levy; R. C. Turner (1991) Metabolism. 40 (9): 908-917). […] The HOMA(-IR) value can be calculated by the following equation: […]
Mixed male/female subjects aged 18-65 years with a HOMA(-IR) score between 2.5 and 3.5, thus indicating insulin resistance, are included in the study. The HOMA-IR can be determined as described herein elsewhere. The HOMA(-IR) is measured at baseline and after 28 days. […]
For `OC[C@@H](O)[C@@H](O)[C@H](O)[C@@H](O)CO` [Sorbitol, D-glucitol], the “reduction in HOMA-IR value” was “Low/medium”. Take chromium(III) picolinate: the “reduction in HOMA-IR value” is recorded as “Very low”. Under `CN(C)C(=N)NC(=N)N` [Metformin, 1,1-dimethylbiguanide hydrochloride, reference compound] stands “Low/medium”.
